Each structure is given as a SMILES string. Where only a bound is given, the exact number is not on record here.

The subject of one assay is human hepatoma cell line Bel-7402. In words: SRB proliferation assay, Bel-7402. As to conditions: BEL-7402 cultivated in vitro, 72 hours, given as bounds, read-out: The Inhibition Activities for Human Liver Cancer Cells BEL-7402 (IC50). Type of assay: cell-based. The protocol: Protocol: the antineoplasmic activities in vitro of the compounds were assayed by a Sulforhodamine B (SRB) protocol. Tumor cells were cultivated at 37 under 5% CO2 in a RPMI 1640 medium or a DMEM medium (Gibco) containing 10% fetal bovine serum. Tumor cells were inoculated on a 96-well plate with a concentration of 0.4-1.0×10^4 cells per well according to the cell types. 24 hours later, the target compounds diluted 10 times were added, each compound having at least 5 concentrations. After treated by the compounds for 72 hours, the culture media were discarded, and the cells were fixed by 10% cold trichloroacetic acid, and then stained by Sulforhodamine B (SRB) solution. The uncombined SRB was washed off, and the SRB combined with protein was dissolved with Tris. OD values were recorded at 515 nm on an ELISA Reader, and the cell growth inhibition rate was calculated according to following equation: Inhibition rate=(ODcontrol−ODexperimental)/ODcontrol×100%
IC50 (50% inhibitory concentration) was calculated by using Logit method based on the inhibition rates at various concentration, and the results are shown in tables 1 and 2.
The following cell lines were used: human hepatocarcinoma cell line […]; ovarian cancer cell line SK-OV-3; human breast cancer cell line MDA-MB-231; human renal carcinoma cell line A498; colon adenocarcinoma cell line HT-29; non-small cell lung cancer cell line NCI-H460; lung adenocarcinoma cell line A549; human colon cancer cell line SW-620; human hepatoma cell line Bel-7402; human breast carcinoma cell line SK-BR-3; and human umbilical vein endothelial cells (HUVEC).
For the compound `COc1ccc(-c2ccc(=O)[nH]n2)cc1C(F)(F)F` [YHHU-546], the IC50 (in general, the concentration that gives 50% inhibition) was less than 100 nM.

The assay is the same for the next values; noted with them: Homo sapiens, Bel-7402, 72 h, BEL-7402 cultivated in vitro, given as bounds, read-out: The Inhibition Activities for Human Liver Cancer Cells BEL-7402 (IC50).
As to `O=c1ccc(-c2ccc(OCC3CC3)c(C(F)(F)F)c2)n[nH]1` [YHHU-713], the IC50 was less than 1000 nM.

`O=c1ccc(-c2ccc(Nc3ccccc3)c(C(F)(F)F)c2)n[nH]1` [YHHU-658]: the IC50 is less than 100 nM.

In the case of `O=c1ccc(-c2ccc(OCCN3CCOCC3)c(C(F)(F)F)c2)n[nH]1` [YHHU-775], the IC50 is less than 100 nM.

For `O=c1ccc(-c2ccc(N3CC4CCCC4C3)c(C(F)(F)F)c2)n[nH]1` (stereo not drawn) [YHHU-718], the IC50 is less than 10000 nM.

Consider `O=c1ccc(-c2ccc(N3CCSC3)c(C(F)(F)F)c2)n[nH]1` [YHHU-670], for which the 50% inhibitory concentration (IC50) is less than 1000 nM.

Consider `O=c1ccc(-c2ccc(C#Cc3ccc(C(F)(F)F)cc3)c(C(F)(F)F)c2)n[nH]1` [YHHU-702], for which the IC50 was less than 10000 nM.

Turning to `C[C@H]1CN(c2ccc(-c3ccc(=O)[nH]n3)cc2C(F)(F)F)CCN1` [YHHU-675], the IC50 is less than 10 nM.

`CN(C)CCN(C)c1ccc(-c2ccc(=O)[nH]n2)cc1C(F)(F)F` [YHHU-746]: the IC50 was greater than 1000 nM.

For the compound `CN(C)Cc1ccc(-c2ccc(=O)[nH]n2)cc1C(F)(F)F` [YHHU-701], the IC50 is less than 10 nM.

As to `Cc1ccc(-c2ccc(=O)[nH]n2)cc1C(F)(F)F` [YHHU-581], the IC50 was less than 100 nM.

For `O=c1ccc(-c2ccc(N3CCN(CCO)CC3)c(C(F)(F)F)c2)n[nH]1` [YHHU-685], the concentration for half-maximal inhibition (IC50) is less than 10 nM.

As for `O=c1ccc(-c2ccc(-c3cccnc3)c(C(F)(F)F)c2)n[nH]1` [YHHU-709], the IC50 is less than 10000 nM.

As to `O=c1ccc(-c2ccc(CCN3CCOCC3)c(C(F)(F)F)c2)n[nH]1` [YHHU-585], the IC50 is less than 100 nM.

With `CN1CCCC(COc2ccc(-c3ccc(=O)[nH]n3)cc2C(F)(F)F)C1` (stereo not drawn) [YHHU-590], the IC50 is less than 100 nM.

Consider `CN(C)c1ccc(-c2ccc(=O)[nH]n2)cc1C(F)(F)F` [YHHU-647], for which the IC50 is less than 10 nM.

Take `O=c1ccc(-c2ccc(NCCO)c(C(F)(F)F)c2)n[nH]1` [YHHU-760]: the IC50 was greater than 100 nM.

Turning to `CCC(C)(C)Oc1ccc(-c2ccc(=O)[nH]n2)cc1C(F)(F)F` [YHHU-773], the IC50 was less than 100 nM.

Take `O=c1ccc(-c2ccc(OCCOCCO)c(C(F)(F)F)c2)n[nH]1` [YHHU-582]: the IC50 was less than 100 nM.

Take `CNc1ccc(-c2ccc(=O)[nH]n2)cc1C(F)(F)F` [YHHU-758]: the IC50 is less than 10 nM.

Consider `O=c1ccc(-c2ccc(OCCBr)c(C(F)(F)F)c2)n[nH]1` [YHHU-579], for which the IC50 is less than 100 nM.

Turning to `CCOC(=O)C1CCCN(c2ccc(-c3ccc(=O)[nH]n3)cc2C(F)(F)F)C1` (stereo not drawn) [YHHU-671], the IC50 is less than 10 nM.

Take `O=C(O)C1CCCN(c2ccc(-c3ccc(=O)[nH]n3)cc2C(F)(F)F)C1` (stereo not drawn) [YHHU-765]: the IC50 was less than 100 nM.

Regarding `O=c1ccc(-c2ccc(N3CC(O)C3)c(C(F)(F)F)c2)n[nH]1` [YHHU-752], the IC50 is less than 100 nM.

As to `CC(C)C(Oc1ccc(-c2ccc(=O)[nH]n2)cc1C(F)(F)F)C(C)C` [YHHU-502], the IC50 is less than 100 nM.

Turning to `O=C1CCCN1c1ccc(-c2ccc(=O)[nH]n2)cc1C(F)(F)F` [YHHU-667], the IC50 is less than 100 nM.

On to `CCOC(=O)CSc1ccc(-c2ccc(=O)[nH]n2)cc1C(F)(F)F` [YHHU-532], for which the IC50 is less than 100 nM.

With `O=c1ccc(-c2ccc(N3CCC(CCO)CC3)c(C(F)(F)F)c2)n[nH]1` [YHHU-679], the IC50 is less than 100 nM.

For `O=c1ccc(-c2ccc(OC(F)(F)F)c(C(F)(F)F)c2)n[nH]1` [YHHU-707], the IC50 is less than 10000 nM.

For the compound `O=C1CSC(=O)N1c1ccc(-c2ccc(=O)[nH]n2)cc1C(F)(F)F` [YHHU-674], the IC50 was less than 1000 nM.

With `CN(C)[C@@H]1CCN(c2ccc(-c3ccc(=O)[nH]n3)cc2C(F)(F)F)C1` [YHHU-683], the IC50 is less than 100 nM.

As to `O=c1ccc(-c2ccc(OCc3ccccc3)c(C(F)(F)F)c2)n[nH]1` [YHHU-714], the IC50 was less than 10000 nM.

Take `COC(CNc1ccc(-c2ccc(=O)[nH]n2)cc1C(F)(F)F)OC` [YHHU-774]: the concentration for half-maximal inhibition (IC50) was less than 100 nM.

For the origin of these results see US9212146B2, “Substituted pyridazinones for the treatment of tumors” (SHANGHAI INSTITUTE OF MATERIA MEDICA, CHINESE ACADEMY OF …, priority 2008, dated 2015).
